According to patent publication US12030912B2, “Cationic steroidal antimicrobial compounds with urethane linkages” (Brigham Young University, priority 2020, dated 2024):
Values after ≈ are worked out from the molar mass of the structure shown. Read-outs that look alike come from different tables or passages of the source.

Legend:
[1] = tested on: Pseudomonas aeruginosa (PA01 47085); assay: Minimum inhibitory concentration (MIC), antimicrobial activity; type: cell-based; details: Pathogen PA01 47085
Experimental: (§1) The antimicrobial activity of CSA-255 was determined in comparison to CSA-44, a CSA compound known to have very high antimicrobial activity compared to other CSAs. The microbes used in the comparative test was were methicillin resistant Staphylococcus aureus (MRSA) BAA-41 and Pseudomonas aeruginosa (PA01 47085).

[2] = tested on: methicillin resistant Staphylococcus aureus (MRSA) BAA-41; assay: as above; type: cell-based; details: Pathogen MRSA BAA-41
Experimental: as §1

| SMILES | MIC [1] | MIC [2] | MIC ([1]; Pseudomonas aeruginosa, read-out: MIC) | MIC ([2]; Staphylococcus aureus, read-out: MIC) |
| --- | --- | --- | --- | --- |
| CCCCCCCCOC(=O)CC[C@@H](C)[C@H]1CC[C@H]2[C@@H]3[C@H](OC(=O)CCN)C[C@@H]4C[C@H](OC(=O)CCN)CC[C@]4(C)[C@H]3C[C@H](OC(=O)CCN)[C@]12C [CSA-44] | 2 µg/mL (≈ 2.72 µM) | 2 µg/mL (≈ 2.72 µM) |  |  |
| CCCCCCCCNC(=O)CC[C@@H](C)[C@H]1CC[C@H]2[C@@H]3[C@H](OC(=O)NCCN)C[C@@H]4C[C@H](OC(=O)NCCN)CC[C@]4(C)[C@H]3C[C@H](OC(=O)NCCN)[C@]12C [CSA-255] |  |  | 2 µg/mL (≈ 2.57 µM) | 4 µg/mL (≈ 5.14 µM) |
